ChEMBL document CHEMBL1201862, “PubChem BioAssay data set” (2004)
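The compound was tested at five concentrations on cells cultured in 96-well plates, with a 48-hour exposure period. Here, GI50 denotes the concentration required for 50% inhibition of growth.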 Calls of active or inactive are those of the source. No stated cut-off is given here; in the data, active = GI50 up to about 1.1 µM and inactive = higher.

Columns and labels:
Assay in all cases: NCI-60 cell line screen, 48 h
RPMI-8226 = tested on: RPMI-8226
SF-268 = tested on: SF-268
MOLT-4 = tested on: MOLT-4
EKVX = tested on: EKVX
NCI-H23 = tested on: NCI-H23
NCI/ADR-RES = tested on: NCI/ADR-RES
NCI-H226 = tested on: NCI-H226
SR = tested on: SR
U-251 = tested on: U-251
TK-10 = tested on: TK-10
HT-29 = tested on: HT-29
SF-295 = tested on: SF-295
IGROV-1 = tested on: IGROV-1
T47D = tested on: T47D
SK-MEL-5 = tested on: SK-MEL-5
SNB-75 = tested on: SNB-75
Malme-3M = tested on: Malme-3M
COLO 205 = tested on: COLO 205
ACHN = tested on: ACHN
OVCAR-3 = tested on: OVCAR-3

| SMILES | GI50 (RPMI-8226) | GI50 (SF-268) | GI50 (MOLT-4) | GI50 (EKVX) | GI50 (NCI-H23) | GI50 (NCI/ADR-RES) | GI50 (NCI-H226) | GI50 (SR) | GI50 (U-251) | GI50 (TK-10) | GI50 (HT-29) | GI50 (SF-295) | GI50 (IGROV-1) | GI50 (T47D) | GI50 (SK-MEL-5) | GI50 (SNB-75) | GI50 (Malme-3M) | GI50 (COLO 205) | GI50 (ACHN) | GI50 (OVCAR-3) |
| --- | --- | --- | --- | --- | --- | --- | --- | --- | --- | --- | --- | --- | --- | --- | --- | --- | --- | --- | --- | --- |
| N=C(N)NNC(=O)C(=O)O | > 100 µM (inactive) | > 100 µM (inactive) | > 100 µM (inactive) | > 100 µM (inactive) | > 100 µM (inactive) | > 100 µM (inactive) | > 100 µM (inactive) | > 100 µM (inactive) | > 100 µM (inactive) | > 100 µM (inactive) | > 100 µM (inactive) | > 100 µM (inactive) | > 100 µM (inactive) | > 100 µM (inactive) | > 100 µM (inactive) | > 100 µM (inactive) | > 100 µM (inactive) | > 100 µM (inactive) | > 100 µM (inactive) | > 100 µM (inactive) |
| CCOc1ccc(-n2c(=O)c3nn4c(=O)n(-c5ccc(OCC)cc5)c(=O)c4nn3c2=O)cc1 | > 100 µM (inactive) | > 100 µM (inactive) | > 100 µM (inactive) | > 100 µM (inactive) | > 100 µM (inactive) | > 100 µM (inactive) | > 100 µM (inactive) | > 100 µM (inactive) | > 100 µM (inactive) | > 100 µM (inactive) | > 100 µM (inactive) | 43.3 µM (inactive) | > 100 µM (inactive) | > 100 µM (inactive) | > 100 µM (inactive) | 20.3 µM (inactive) | > 100 µM (inactive) | > 100 µM (inactive) | > 100 µM (inactive) | > 100 µM (inactive) |
| COc1ccc(Cc2n[nH]c(Nc3ccc(Br)cc3)nc2=O)cc1OC | > 100 µM (inactive) | 88.5 µM (inactive) | 43.1 µM (inactive) | > 100 µM (inactive) | > 100 µM (inactive) | > 100 µM (inactive) | > 100 µM (inactive) | 30.3 µM (inactive) | > 100 µM (inactive) | > 100 µM (inactive) | > 100 µM (inactive) | > 100 µM (inactive) | > 100 µM (inactive) | 94.2 µM (inactive) | > 87.9 µM (inactive) | 28.9 µM (inactive) | 47.2 µM (inactive) | > 100 µM (inactive) | > 100 µM (inactive) | > 74.3 µM (inactive) |
| C=C1C(=O)CC2C1CC(=O)/C(C)=C/CCC(C)(O)C2O (stereo not given) | 1.41 µM (inactive) | 18.1 µM (inactive) | 1.57 µM (inactive) | 18.7 µM (inactive) | 8.17 µM (inactive) | 8.2 µM (inactive) | 30.9 µM (inactive) | 7.91 µM (inactive) | 10.8 µM (inactive) | 0.562 µM (active) | 14.6 µM (inactive) | 27.4 µM (inactive) | 10.6 µM (inactive) | 1.74 µM (inactive) | 6.79 µM (inactive) | 11.8 µM (inactive) | 1.36 µM (inactive) | 2.03 µM (inactive) | 2.37 µM (inactive) | 7.16 µM (inactive) |
| O=C(CC(c1ccccc1)N1CCCCC1)c1ccccc1 (stereo not given) | 2.49 µM (inactive) | 16 µM (inactive) | 1.96 µM (inactive) | 17.7 µM (inactive) | 16 µM (inactive) | 22.5 µM (inactive) | 18.4 µM (inactive) | 1.7 µM (inactive) | 9.51 µM (inactive) | 14.2 µM (inactive) | 13.8 µM (inactive) | 16.5 µM (inactive) | 14 µM (inactive) | 17.9 µM (inactive) | 15.6 µM (inactive) | 16.6 µM (inactive) | 16 µM (inactive) | 20.1 µM (inactive) | 17 µM (inactive) | 11.2 µM (inactive) |
| Nc1nc(Sc2ccc([N+](=O)[O-])cn2)c2nc[nH]c2n1 | 14 µM (inactive) | 4.35 µM (inactive) | 4.56 µM (inactive) | 7.53 µM (inactive) | 8.05 µM (inactive) | 3.78 µM (inactive) | 12.6 µM (inactive) | 3.46 µM (inactive) | 15.7 µM (inactive) | 9.08 µM (inactive) | 4.86 µM (inactive) | 9.46 µM (inactive) | 14.5 µM (inactive) | 4.36 µM (inactive) | 14.4 µM (inactive) | 5.2 µM (inactive) | 11.4 µM (inactive) | 11.8 µM (inactive) | 12.3 µM (inactive) | 8.93 µM (inactive) |
| ONCCCn1cnc2c(NC3CC3)ncnc21 | > 100 µM (inactive) | > 100 µM (inactive) | > 100 µM (inactive) | > 100 µM (inactive) | > 100 µM (inactive) | > 100 µM (inactive) | > 100 µM (inactive) | > 100 µM (inactive) | > 100 µM (inactive) | > 100 µM (inactive) | > 100 µM (inactive) | > 100 µM (inactive) | > 100 µM (inactive) | > 100 µM (inactive) | > 100 µM (inactive) | > 100 µM (inactive) | > 100 µM (inactive) | > 100 µM (inactive) | > 100 µM (inactive) | > 100 µM (inactive) |
| O=C1CCC2(CC1CCSc1ccccc1)OCCO2 (stereo not given) | > 100 µM (inactive) | > 100 µM (inactive) | 81.8 µM (inactive) | > 100 µM (inactive) | > 100 µM (inactive) | > 100 µM (inactive) | > 100 µM (inactive) | > 100 µM (inactive) | > 100 µM (inactive) | > 100 µM (inactive) | > 100 µM (inactive) | > 100 µM (inactive) | > 100 µM (inactive) | > 100 µM (inactive) | 88.5 µM (inactive) | > 100 µM (inactive) | > 100 µM (inactive) | > 100 µM (inactive) | > 100 µM (inactive) | > 100 µM (inactive) |
| CCC/C(Cl)=N/OC(NC(=O)OCC)(C(F)(F)F)C(F)(F)F | 23.1 µM (inactive) | 19.9 µM (inactive) | 32.5 µM (inactive) | 20.9 µM (inactive) | 25.1 µM (inactive) | 34.5 µM (inactive) | > 100 µM (inactive) | 23.1 µM (inactive) | > 100 µM (inactive) | 19 µM (inactive) | 22.4 µM (inactive) | > 100 µM (inactive) | 16.6 µM (inactive) | 45.4 µM (inactive) | 23.8 µM (inactive) | 82.4 µM (inactive) | 15.4 µM (inactive) | 19.8 µM (inactive) | 18.3 µM (inactive) | 15.8 µM (inactive) |
| Cc1ccnc2[nH]c3ccccc3c(=O)c12 | 25.9 µM (inactive) | 18.9 µM (inactive) | 20.4 µM (inactive) | 28.8 µM (inactive) | 22.9 µM (inactive) | 28.6 µM (inactive) | 24.7 µM (inactive) | 11.5 µM (inactive) | > 10 µM (inactive) | 10.1 µM (inactive) | 15.7 µM (inactive) | 35.5 µM (inactive) | 17.5 µM (inactive) | 31.3 µM (inactive) | 14 µM (inactive) | 16.7 µM (inactive) | 19.2 µM (inactive) | 19.8 µM (inactive) | 20.5 µM (inactive) | 23.7 µM (inactive) |
| Cc1ccc(C(=O)CC(O)(C(F)(F)F)C(F)(F)F)cc1[N+](=O)[O-] | 12.6 µM (inactive) | 9.42 µM (inactive) | 16.7 µM (inactive) | 17.9 µM (inactive) | 9.29 µM (inactive) | 16.3 µM (inactive) | 20.2 µM (inactive) | 5.73 µM (inactive) | 14.2 µM (inactive) | 17.6 µM (inactive) | 1.87 µM (inactive) | 7 µM (inactive) | 5.05 µM (inactive) | 13.5 µM (inactive) | 16.4 µM (inactive) | 18.3 µM (inactive) | 16.3 µM (inactive) | 16.8 µM (inactive) | 15.5 µM (inactive) | 2.2 µM (inactive) |
| O=[N+]([O-])c1ccc(-c2nnc(C34CC5CC(CC(C5)C3)C4)o2)cc1 | > 100 µM (inactive) | > 100 µM (inactive) | > 100 µM (inactive) | > 100 µM (inactive) | > 100 µM (inactive) | > 100 µM (inactive) | > 100 µM (inactive) | > 100 µM (inactive) | > 100 µM (inactive) | > 100 µM (inactive) | > 100 µM (inactive) | > 100 µM (inactive) | > 100 µM (inactive) | > 100 µM (inactive) | > 100 µM (inactive) | > 100 µM (inactive) | > 100 µM (inactive) | > 100 µM (inactive) | > 100 µM (inactive) | > 100 µM (inactive) |
